The subject of data set [1] is 3T3-L1. Kind of data set: Induction of differentiation of mouse 3T3L1 cells assessed as lipid accumulation at 10 uM after 8 days by using Oil Red O staining by spectrophotometry relative to control. The data set is classed as cell-based. The note with it: 3t3-l1, 192 h.
In data set [2] the test system is 3T3-L1. Kind of data set: Inhibition of differentiation of mouse 3T3L1 cells assessed as reduction of lipid accumulation after 8 days by using Oil Red O staining by spectrophotometry relative to control. Type of data set: functional, cell-based.
In data set [3] the test system is 3T3-L1. The experiment in a line: Inhibition of differentiation of mouse 3T3L1 cells assessed as lipid accumulation at 100 uM after 8 days by using Oil Red O staining by spectrophotometry relative to control. Type of data set: functional.
The subject of data set [4] is 3T3-L1. The experiment in a line: Inhibition of differentiation of mouse 3T3L1 cells assessed as lipid accumulation at 50 uM after 8 days by using Oil Red O staining by spectrophotometry relative to control. Type of data set: functional.
Data set [5] deals with 3T3-L1. The experiment in a line: Inhibition of differentiation of mouse 3T3L1 cells assessed as lipid accumulation at 10 uM after 8 days by using Oil Red O staining by spectrophotometry relative to control. The data set is classed as functional.
For data set [6], the system named is 3T3-L1. The experiment in a line: Cytotoxicity against mouse 3T3L1 cells at 100 uM. The data set is classed as cell-based. The note with it: 3t3-l1, 100 µM.
For data set [7], the system named is 3T3-L1. Kind of data set: Inhibition of differentiation of mouse 3T3L1 cells assessed as lipid accumulation at 100 uM after 8 days by using Oil Red O staining by spectrophotometry relative to control in presence of troglitazone. The data set is classed as functional. Also on record: scale not given: the % may be the effect or the level left.
In data set [8] the test system is 3T3-L1. The experiment in a line: Antiadipogenic activity in mouse 3T3L1 cells assessed as inhibition of C/EBPalpha expression at 10 to 50 uM after 8 days by Western blot analysis. Type of data set: functional, cell-based.
For data set [9], the system named is 3T3-L1. Kind of data set: Antiadipogenic activity in mouse 3T3L1 cells assessed as inhibition of PPAR-gamma expression at 10 to 50 uM after 8 days by Western blot analysis. Type of data set: functional, cell-based. On the technique in general: Immunoblotting shows a protein as a band on a membrane.

Calls of active or inactive are those of the source. No cut-off for these calls is given here.

`Cc1c(C)c2c(c(C)c1O)CCC(C)(COc1ccc(CC3SC(=O)NC3=O)cc1)O2` (stereo not drawn) [TROGLITAZONE]: in the data set with 3T3-L1 [1], the Activity came out at 107.1%.

`O=C(CCc1ccc(O)cc1)C[C@@H](O)CCc1ccc(O)c(O)c1`: in the data set with 3T3-L1 [2], the inhibition entry is “Dose-dependent effect”. Also, the “Lipid accumulation (% of control)” value in the data set with 3T3-L1 [3] is reported as 57.6%; in the data set on 3T3-L1 [4] it was 70.5%. In addition, the “Lipid accumulation relative to control” value with 3T3-L1 [5] is 77.3%.

For the compound `Oc1ccc(CC[C@@H](O)C[C@H](O)CCc2ccc(O)cc2)cc1` [(+)-HANNOKINOL], the Activity result in the data set with 3T3-L1 [6] was “Toxic”. Further, in the data set with 3T3-L1 [4], the “Lipid accumulation (% of control)” value was 61.2%. Besides, the “Lipid accumulation relative to control” value with 3T3-L1 [5] turned out to be 90.2%.

`Oc1ccc(CCCC[C@@H](O)CCc2ccc(O)c(O)c2)cc1O`: the “Lipid accumulation (% of control)” value in the data set with 3T3-L1 [3] worked out at 90%; in the data set on 3T3-L1 [4], 86.4%. For the same compound, the “Lipid accumulation relative to control” value in the data set on 3T3-L1 [5] came out at 84.6%.

For `O=C(CCc1ccc(O)c(O)c1)C[C@@H](O)CCc1ccc(O)c(O)c1` [HIRSUTANONOL], the inhibition result in the data set on 3T3-L1 [2] is “Dose-dependent effect”. Further, the “Lipid accumulation (% of control)” value in the data set with 3T3-L1 [3] is 59.9%; with 3T3-L1 [4], 72.6%. The “Lipid accumulation relative to control” value with 3T3-L1 [5] turned out to be 83.9%.

For `OC[C@H]1O[C@@H](O[C@H](CCCCc2ccc(O)cc2)CCc2ccc(O)cc2)[C@H](O)[C@@H](O)[C@@H]1O`, the figures for the “Lipid accumulation (% of control)” value in the data set on 3T3-L1 [3] and with 3T3-L1 [4] were 98.1% and 103.1%, respectively. Also, in the data set with 3T3-L1 [5], the “Lipid accumulation relative to control” value is 76%.

`O=C(CCc1ccc(O)cc1)C[C@H](CCc1ccc(O)cc1)O[C@@H]1OC[C@@H](O)[C@H](O)[C@H]1O`: the Activity in the data set on 3T3-L1 [7] was 20.8%. The inhibition entry in the data set on 3T3-L1 [8] and in the data set on 3T3-L1 [9] was “Active” throughout. In addition, the inhibition result in the data set with 3T3-L1 [2] is “Dose-dependent effect”. The “Lipid accumulation (% of control)” value with 3T3-L1 [3] was 14.4%; with 3T3-L1 [4], 28.9%. The “Lipid accumulation relative to control” value with 3T3-L1 [5] came to 81.7%.

Take `O=C(/C=C/c1ccc(O)c(O)c1)C[C@@H](O)CCc1ccc(O)cc1`: the inhibition entry in the data set with 3T3-L1 [2] is “Dose-dependent effect”. Further, the figures for the “Lipid accumulation (% of control)” value in the data set with 3T3-L1 [3] and with 3T3-L1 [4] were 58.8% and 81.8%, respectively. Besides, the “Lipid accumulation relative to control” value in the data set on 3T3-L1 [5] is recorded as 92.6%.

For `O=C(/C=C/CCc1ccc(O)c(O)c1)/C=C/c1ccc(O)c(O)c1`, the inhibition result in the data set with 3T3-L1 [2] was “Dose-dependent effect”. In addition, the “Lipid accumulation (% of control)” value with 3T3-L1 [3] is 36.5%; with 3T3-L1 [4] it was 66.5%. In the data set on 3T3-L1 [5], the “Lipid accumulation relative to control” value was determined as 86.5%.

Turning to `O=C(O[C@@H]1Cc2c(O)cc(O)cc2O[C@@H]1c1cc(O)c(O)c(O)c1)c1cc(O)c(O)c(O)c1` [EPIGALOCATECHIN GALLATE], the “Lipid accumulation (% of control)” value is on record as 54.5% in the data set on 3T3-L1 [3] and 81.9% in the data set with 3T3-L1 [4]. In addition, the “Lipid accumulation relative to control” value with 3T3-L1 [5] is 94.9%.

Take `O=C(/C=C/C=C/c1ccc(O)c(O)c1)CCc1ccc(O)c(O)c1`: the “Lipid accumulation (% of control)” value with 3T3-L1 [3] was 103%; in the data set with 3T3-L1 [4], 108.9%. In addition, the “Lipid accumulation relative to control” value in the data set on 3T3-L1 [5] came to 104.4%.

For the compound `O=C(/C=C/CCc1ccc(O)c(O)c1)CCc1ccc(O)c(O)c1` [DEHYDROHIRSUTANONOL], in the data set on 3T3-L1 [2], the inhibition result was “Dose-dependent effect”. Also, the “Lipid accumulation (% of control)” value in the data set with 3T3-L1 [3] amounted to 38.6%; with 3T3-L1 [4] it was 45.7%. The “Lipid accumulation relative to control” value in the data set on 3T3-L1 [5] came to 86.1%.
